Reference: ChEMBL document CHEMBL5506023, “Design, Synthesis, and Evaluation of Dihydropyrimidine Derivatives as Selective PDE1 Inhibitors for the Treatment of Liver Fibrosis” (J Med Chem, 2024)
Calls of active or inactive are those of the source. The rule behind the calls is not given here.

Columns and labels:
[1] = biological target: High affinity cAMP-specific and IBMX-insensitive 3',5'-cyclic phosphodiesterase 8A (Homo sapiens, UniProt O60658); assay: Inhibition of PDE8A (480 to 820 residues) (unknown origin) using 3H-cAMP as substrate
Chain of High affinity cAMP-specific and IBMX-insensitive 3',5'-cyclic phosphodiesterase 8A (O60658 whole entry, the tested form may be a part): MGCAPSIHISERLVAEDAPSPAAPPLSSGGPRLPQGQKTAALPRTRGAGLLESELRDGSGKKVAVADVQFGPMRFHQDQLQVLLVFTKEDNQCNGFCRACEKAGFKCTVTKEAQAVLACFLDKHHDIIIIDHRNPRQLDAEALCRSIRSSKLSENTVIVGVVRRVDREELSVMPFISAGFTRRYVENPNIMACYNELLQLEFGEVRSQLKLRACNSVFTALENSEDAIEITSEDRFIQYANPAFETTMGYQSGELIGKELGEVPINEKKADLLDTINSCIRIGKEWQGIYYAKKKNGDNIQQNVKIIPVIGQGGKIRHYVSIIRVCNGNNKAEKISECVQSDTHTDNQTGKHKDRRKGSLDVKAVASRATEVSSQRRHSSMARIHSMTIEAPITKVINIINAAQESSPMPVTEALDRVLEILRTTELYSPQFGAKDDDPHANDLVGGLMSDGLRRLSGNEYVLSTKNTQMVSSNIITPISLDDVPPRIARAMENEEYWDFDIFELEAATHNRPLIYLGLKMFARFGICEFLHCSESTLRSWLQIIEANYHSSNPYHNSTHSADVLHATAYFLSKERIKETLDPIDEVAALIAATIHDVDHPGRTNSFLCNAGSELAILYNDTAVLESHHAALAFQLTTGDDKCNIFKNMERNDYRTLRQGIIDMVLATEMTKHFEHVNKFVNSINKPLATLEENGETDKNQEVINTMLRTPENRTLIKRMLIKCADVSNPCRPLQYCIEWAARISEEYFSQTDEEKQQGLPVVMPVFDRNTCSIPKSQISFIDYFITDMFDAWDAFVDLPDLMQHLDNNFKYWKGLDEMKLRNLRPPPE

[2] = Selectivity index, ratio of IC50 for inhibition of PDE1C2 (147 to 531 residues) (unknown origin) using 3H-cGMP as substrate to IC50 for inhibition of PDE9A (181 to 506 residues) (unknown origin) using 3H-cGMP as substrate
[3] = AUC (0 to infinity) in Sprague-Dawley rat at 2.5 mg/kg,iv administration; assay type: ADME, organism-based; conditions: in vivo
[4] = Observed clearance in Sprague-Dawley rat at 2.5 mg/kg,iv administration; assay type: ADME, organism-based; conditions: in vivo
[5] = MRT in Sprague-Dawley rat at 2.5 mg/kg,iv administration; assay type: ADME, organism-based; conditions: in vivo
[6] = biological target: Voltage-gated inwardly rectifying potassium channel KCNH2 (Homo sapiens, UniProt Q12809); assay: Inhibition of hERG expressed in CHO cells by automated patch clamp electrophysiology analysis; assay type: toxicity, cell-based
Chain of Voltage-gated inwardly rectifying potassium channel KCNH2 (Q12809 whole entry): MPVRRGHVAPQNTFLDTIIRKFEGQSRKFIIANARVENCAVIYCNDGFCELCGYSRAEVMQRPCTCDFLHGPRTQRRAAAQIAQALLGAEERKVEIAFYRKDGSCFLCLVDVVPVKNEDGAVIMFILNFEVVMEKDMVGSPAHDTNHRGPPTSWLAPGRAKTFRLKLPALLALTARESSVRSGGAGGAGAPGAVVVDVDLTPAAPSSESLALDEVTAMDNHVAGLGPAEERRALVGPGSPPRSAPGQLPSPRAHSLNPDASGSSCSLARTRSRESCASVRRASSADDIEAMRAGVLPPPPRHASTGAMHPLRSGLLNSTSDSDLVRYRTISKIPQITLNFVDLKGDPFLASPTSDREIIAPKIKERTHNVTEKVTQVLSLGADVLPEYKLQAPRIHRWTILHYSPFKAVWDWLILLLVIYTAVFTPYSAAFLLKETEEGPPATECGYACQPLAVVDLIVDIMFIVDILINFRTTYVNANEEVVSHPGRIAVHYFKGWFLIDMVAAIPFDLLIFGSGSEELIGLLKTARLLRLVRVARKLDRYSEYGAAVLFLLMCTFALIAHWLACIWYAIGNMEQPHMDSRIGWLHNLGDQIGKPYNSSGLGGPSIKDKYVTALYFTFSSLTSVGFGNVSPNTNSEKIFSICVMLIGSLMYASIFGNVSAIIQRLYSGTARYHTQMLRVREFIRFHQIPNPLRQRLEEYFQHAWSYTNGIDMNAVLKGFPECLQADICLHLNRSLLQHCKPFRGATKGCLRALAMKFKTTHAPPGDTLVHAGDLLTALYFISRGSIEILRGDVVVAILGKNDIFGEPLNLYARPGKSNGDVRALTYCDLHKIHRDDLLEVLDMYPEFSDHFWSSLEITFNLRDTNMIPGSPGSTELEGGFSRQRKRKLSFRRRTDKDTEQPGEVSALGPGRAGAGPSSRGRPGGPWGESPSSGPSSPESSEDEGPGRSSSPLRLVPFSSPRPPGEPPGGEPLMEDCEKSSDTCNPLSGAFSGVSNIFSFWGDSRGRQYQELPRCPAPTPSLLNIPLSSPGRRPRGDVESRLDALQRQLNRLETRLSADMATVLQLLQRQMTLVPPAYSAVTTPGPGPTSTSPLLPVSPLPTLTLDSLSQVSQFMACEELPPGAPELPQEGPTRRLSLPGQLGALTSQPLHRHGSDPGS

[7] = biological target: T1, Cytochrome P450 1A2 (Homo sapiens, UniProt P05177); assay: Inhibition of CYP1A2 in human liver microsomes in presence of NADPH; assay type: ADME, Microsome
T1 sequence (P05177 whole entry): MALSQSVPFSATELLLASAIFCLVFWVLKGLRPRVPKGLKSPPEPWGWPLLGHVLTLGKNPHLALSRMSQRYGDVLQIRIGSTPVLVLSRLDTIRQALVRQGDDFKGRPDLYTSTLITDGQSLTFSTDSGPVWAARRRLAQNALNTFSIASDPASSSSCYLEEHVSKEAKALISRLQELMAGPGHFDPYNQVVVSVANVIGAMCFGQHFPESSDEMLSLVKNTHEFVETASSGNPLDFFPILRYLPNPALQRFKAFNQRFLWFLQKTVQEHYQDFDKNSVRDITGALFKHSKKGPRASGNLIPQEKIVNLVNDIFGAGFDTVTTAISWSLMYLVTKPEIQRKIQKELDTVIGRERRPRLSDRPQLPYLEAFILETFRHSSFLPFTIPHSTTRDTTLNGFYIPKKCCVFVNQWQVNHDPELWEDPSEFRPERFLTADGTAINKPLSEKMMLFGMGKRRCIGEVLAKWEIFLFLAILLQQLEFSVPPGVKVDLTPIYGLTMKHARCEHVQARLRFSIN

[8] = biological target: Cytochrome P450 3A4 (Homo sapiens, UniProt P08684); assay: Inhibition of CYP3A4-M in human liver microsomes in presence of NADPH; assay type: ADME, Microsome
Chain of Cytochrome P450 3A4 (P08684 whole entry): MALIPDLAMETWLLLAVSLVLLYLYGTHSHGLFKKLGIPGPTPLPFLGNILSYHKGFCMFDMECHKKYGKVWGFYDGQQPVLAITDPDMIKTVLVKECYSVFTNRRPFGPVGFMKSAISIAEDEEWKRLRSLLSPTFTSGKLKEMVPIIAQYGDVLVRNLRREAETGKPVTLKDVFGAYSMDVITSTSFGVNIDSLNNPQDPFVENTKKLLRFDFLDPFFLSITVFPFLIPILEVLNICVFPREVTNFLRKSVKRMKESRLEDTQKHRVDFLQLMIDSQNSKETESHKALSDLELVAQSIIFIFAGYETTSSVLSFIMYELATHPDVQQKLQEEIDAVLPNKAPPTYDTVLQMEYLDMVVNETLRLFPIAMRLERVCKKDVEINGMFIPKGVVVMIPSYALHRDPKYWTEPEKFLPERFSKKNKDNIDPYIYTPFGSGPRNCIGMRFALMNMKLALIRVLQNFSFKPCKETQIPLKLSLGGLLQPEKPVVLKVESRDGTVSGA

[9] = Acute toxicity in Kunming mouse assessed as lethal dose at po administration for 14 days; assay type: organism-based; conditions: in vivo, 336 h, time 14 day
[10] = system: Rattus norvegicus; assay: Antifibrotic activity against bile duct ligation induced Sprague-Dawley rat liver fibrosis model assessed as reduction in fibrotic lesion at 2.5 mg/kg,ip administrated once daily for 21 days by hematoxylin and eosin staining based analysis; assay type: functional, organism-based; conditions: time 21.0 day
[11] = system: Rattus norvegicus; assay: Antifibrotic activity against bile duct ligation induced Sprague-Dawley rat liver fibrosis model assessed as reduction in collagen deposition at 2.5 mg/kg,ip administrated once daily for 21 days by Masson's trichome staining based analysis; assay type: functional, organism-based; conditions: time 21.0 day
[12] = system: Rattus norvegicus; assay: Antifibrotic activity against bile duct ligation induced Sprague-Dawley rat liver fibrosis model assessed as reduction in alpha-smooth muscle actin level in liver at 2.5 mg/kg,ip administrated once daily for 21 days by immunofluorescence staining based analysis; assay type: functional, organism-based; conditions: time 21.0 day
[13] = system: Rattus norvegicus; assay: Antifibrotic activity against bile duct ligation induced Sprague-Dawley rat liver fibrosis model assessed as downregulation of alpha-SMA expression in liver at 2.5 mg/kg,ip administrated once daily for 21 days by Western blotting analysis; assay type: functional, organism-based; conditions: time 21.0 day
[14] = system: Rattus norvegicus; assay: Antifibrotic activity against bile duct ligation induced Sprague-Dawley rat liver fibrosis model assessed as downregulation of collagen I expression in liver at 2.5 mg/kg,ip administrated once daily for 21 days by Western blotting analysis; assay type: functional, organism-based; conditions: time 21.0 day
[15] = system: Rattus norvegicus; assay: Antifibrotic activity against bile duct ligation induced Sprague-Dawley rat liver fibrosis model assessed as increase in cGMP level in liver at 2.5 mg/kg,ip administrated once daily for 21 days by ELISA; assay type: functional, organism-based; conditions: time 21.0 day

CC1=C(C(=O)OCC2CCCCC2)C(c2ccc(OC(F)F)c(OCC3CC3)c2)N(C(=O)SCc2ccccc2)C(=O)N1 (stereo not given)
IC50 [1]: 1.76 µM
Ratio IC50 [2]: 210
AUC(0-inf) [3]: 6320 ng·h/mL
clearance [4]: 6.56 mL/min/kg
MRT [5]: 1.77 h
IC50 [6]: > 40 µM
IC50 [7]: > 25 µM
IC50 [8]: > 25 µM
LD [9]: > 1500 mg/kg
Activity [10]: Active
Activity [11]: Active
Activity [12]: Active
Activity [13]: Active
Activity [14]: Active
Activity [15]: inactive
